How the values were obtained:
Test in all cases: relative viability (nuclei count vs DMSO), 5 days (fraction); higher = more cells survive
IU1-47 + Palbociclib = compound: CC1=CC(=C(N1C2=CC=C(C=C2)Cl)C)C(=O)CN3CCCCC3 [IU1-47] + CC(=O)c1c(C)c2cnc(Nc3ccc(N4CCNCC4)cn3)nc2n(C2CCCC2)c1=O [Palbociclib] (partner 0.5 µM)
Summary of the method: (§1)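 Lung cancer cell lines were pin-tool dosed in 1536-well plates on the day after seeding, with either a lone drug or a fixed anchor-drug dose plus five library-drug doses (not always all listed) in √10 steps. Nuclei were counted on 4× images after 5 days. Relative viability is the ratio of treated-well to vehicle-well nuclei counts, with each value a median of duplicate plates.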

IU1-47 + Navitoclax = compound: CC1=CC(=C(N1C2=CC=C(C=C2)Cl)C)C(=O)CN3CCCCC3 [IU1-47] + CC1(C)CCC(c2ccc(Cl)cc2)=C(CN2CCN(c3ccc(C(=O)NS(=O)(=O)c4ccc(N[C@H](CCN5CCOCC5)CSc5ccccc5)c(S(=O)(=O)C(F)(F)F)c4)cc3)CC2)C1 [Navitoclax] (partner 0.5 µM)
Summary of the method: as §1

FG-4592 + Crizotinib = compound: Cc1nc(C(=O)NCC(=O)O)c(O)c2ccc(Oc3ccccc3)cc12 [FG-4592] + C[C@@H](Oc1cc(-c2cnn(C3CCNCC3)c2)cnc1N)c1c(Cl)ccc(F)c1Cl [Crizotinib] (partner 1 µM)
Summary of the method: as §1

FG-4592 + Linsitinib = compound: Cc1nc(C(=O)NCC(=O)O)c(O)c2ccc(Oc3ccccc3)cc12 [FG-4592] + C[C@]1(O)C[C@@H](c2nc(-c3ccc4ccc(-c5ccccc5)nc4c3)c3c(N)nccn32)C1 [Linsitinib] (partner 1 µM)
Summary of the method: as §1

Cell Line | relative viability (IU1-47 + Palbociclib; first compound 0.08 µM) | relative viability (IU1-47 + Palbociclib; first compound 0.253 µM) | relative viability (IU1-47 + Palbociclib; first compound 0.8 µM) | relative viability (IU1-47 + Palbociclib; first compound 2.53 µM) | relative viability (IU1-47 + Palbociclib; first compound 8 µM) | relative viability (IU1-47 + Navitoclax; first compound 0.08 µM) | relative viability (IU1-47 + Navitoclax; first compound 0.253 µM) | relative viability (IU1-47 + Navitoclax; first compound 0.8 µM) | relative viability (IU1-47 + Navitoclax; first compound 2.53 µM) | relative viability (IU1-47 + Navitoclax; first compound 8 µM) | relative viability (FG-4592 + Crizotinib; first compound 0.08 µM) | relative viability (FG-4592 + Crizotinib; first compound 0.253 µM) | relative viability (FG-4592 + Crizotinib; first compound 0.8 µM) | relative viability (FG-4592 + Crizotinib; first compound 2.53 µM) | relative viability (FG-4592 + Crizotinib; first compound 8 µM) | relative viability (FG-4592 + Linsitinib; first compound 0.08 µM) | relative viability (FG-4592 + Linsitinib; first compound 0.253 µM) | relative viability (FG-4592 + Linsitinib; first compound 0.8 µM) | relative viability (FG-4592 + Linsitinib; first compound 2.53 µM) | relative viability (FG-4592 + Linsitinib; first compound 8 µM)
NCI-H1975 | 0.586 | 0.547 | 0.868 | 0.611 | 0.364 | 1.25 | 1.14 | 1.38 | 1.18 | 0.888 | 0.921 | 0.892 | 1.11 | 0.991 | 0.897 | 1.01 | 0.902 | 1.01 | 0.96 | 0.752
NCI-H1993 | 0.854 | 0.698 | 0.659 | 0.558 | 0.513 | 0.876 | 0.938 | 0.893 | 0.979 | 0.895 | 0.969 | 0.873 | 0.919 | 0.834 | 0.828 | 0.808 | 0.646 | 0.713 | 0.728 | 0.706
NCI-H2009 | 0.225 | 0.229 | 0.208 | 0.21 | 0.231 | 1.23 | 1.2 | 1.16 | 1.14 | 1.18 | 1.14 | 0.967 | 1.01 | 0.953 | 0.98 | 1.19 | 1.08 | 1.28 | 1.21 | 1.19
NCI-H2023 | 0.464 | 0.45 | 0.421 | 0.47 | 0.344 | 1.02 | 0.934 | 1.05 | 1.02 | 1.1 | 0.609 | 0.66 | 0.703 | 0.768 | 0.544 | 0.611 | 0.575 | 0.646 | 0.77 | 0.685
NCI-H2085 | 0.444 | 0.458 | 0.488 | 0.463 | 0.496 | 1.15 | 1.22 | 1.13 | 1.19 | 1.01 | 0.852 | 0.871 | 0.928 | 1.03 | 0.742 | 0.804 | 0.861 | 0.758 | 0.878 | 0.815
NCI-H2087 | 0.204 | 0.302 | 0.239 | 0.174 | 0.25 | 1.1 | 0.922 | 1.11 | 0.947 | 0.99 | 0.722 | 0.648 | 1.01 | 0.997 | 0.896 | 0.865 | 0.713 | 1.13 | 0.878 | 1.14

Source: the supplement of paper PMC10307832
